The results in this text go back to US9895407B2, “Disinfecting formulations and uses thereof” (Sunny Wipes Pty Ltd, priority 2011, dated 2018).

Several values for one entry are separate records, joined by “and”; a condition that tells them apart may be missing. Equal entries are not always repeated.

For test [1], the system named is hand microflora. In words: Surgical handrub test, EN 12791:2005. Type of test: in vivo, human. The conditions noted are these: 5 volunteers, 60 seconds exposure, right hand under sterile glove for 3 hours.
Protocol: The protocol is based upon European standard EN 12791:2005 designed for testing “Chemical disinfectants and antiseptics—Surgical hand disinfectant”.
The clean and healthy hands (free of cuts and abrasions and with short, clean fingernails) of 5 volunteers were initially washed for 1 min with soap and water and dried with paper towel. To establish base line flora levels the fingertips and thumb were rubbed for 1 minute on the base of a petri dish containing 10 ml of Tryptone Soy Broth (TSB). A separate petri dish was used for each hand. Dilutions of 10^−2 and 10^−3 were prepared from the TSB that were assayed by the pour-plate method using Tryptone Soy Agar (TSA) plates.
Immediately after sampling for the baseline and without recontamination of the hands the subjects performed the handrub test. The subjects were split into two groups which were alternately treated with the standard formulation or the test formulation initially and then the other formulation, separately by a week to allow re-colonisation of native flora. […]
Log10, values for immediate effect and sustained effect were then determined and a Log Reduction Factor for both test formulation and standard formulation were calculated based on the average difference between the log10 pre-value and the log10 post-value in each subject.
Test [2] concerns Escherichia coli (NCTC 10538). The test can be described thus: Hygienic handwash/handrub test, EN 1500:1997, artificially contaminated hands. In kind it is in vivo. The conditions noted are these: 60 second rub. The source says:
The protocol is based upon European standard EN 1500:1997 designed for testing “Chemical disinfectants and antiseptics—Hygienic handwash”. The subjects (15 volunteers with clean and healthy hands that were free of cuts and abrasions and having short, clean fingernails) were split into two approximately equal groups which were alternately treated with the standard formulation or the test formulation initially and then the other formulation, separately by a one day. The hands of the subjects were initially washed for 1 min with soap and water and dried with paper towel. […] Excess fluid was allowed to drain back into the container. Hands were air dried for 3 minutes, holding them in a horizontal position. Each subject was encouraged to rotate their hands to avoid the formation of droplets. Each subject was treated from the same batch of contamination fluid. After drying, fingertips and thumb were rubbed for 1 minute on the base of a Petri-dish, which contained 10 mL of TSB. A separate Petri-dish for each hand (Left and Right) was used. This was the Pre-value. Dilutions of 10^−4 and 10^−5 were prepared using sterile Peptone Water (PEP). Each dilution was spread onto pre-poured, dried TSA plates. […] This procedure was completed with a 5 second rinse of fingers under running tap water. For the test formulation, 3 mL of test product was dispensed onto the subject's hands and rubbed over for 30 seconds using the standard procedure as instructed. This was done twice to give total of 6 mL test product over 60 second rub. The test product procedure was completed with a 5 seconds rinse of fingers under running tap water. […] Dilutions of 10^0, 10^−1 and 10^−2 were spread on pre-poured and dried TSA plates. All plates were incubated at 36° C.±2° C. for 24-48 hours. After the incubation period, all the plates were checked and colony forming units on both standard and test sample were counted. Dilutions with counts that are within 15-300 cfu were used in the computation. Plates showing less than 15 cfu or no growth were also counted. […] The test culture used in this study was obtained from the University of New South Wales Culture Collection—Escherichia coli (NCTC 10538) A neutralizer validated according to prEN 12054 were incorporated in the sampling fluids and diluents for the assessment of post-values in both test and reference procedure. […] The test organism was freshly revived from frozen protect beads by sub culturing in two McCartney bottles containing 5 mL of TSB. They were incubated at 37° C. These cultures are then inoculated into two bottles containing 1 L TSB. They were incubated at 37° C. for 18-24 hours The cultures were pooled into a sterile bottle to prepare the bacterial suspension. […] For testing this product, a cross-over design was used. […]

Test [3] relates to Escherichia coli (NCTC 10538). The test is described as above. The conditions noted are these: N = 14 subjects. In kind it is in vivo.
Where [4] appears, read: per subject and hand, duplicate plates, 2 x 3 mL.

Consider `CCCO` [60% propan-1-ol, propan-1-ol], for which the “reduction of hand microflora, after 3 hours” value in test [1] is on record as 1.89 Logs.

For the compound `CC(C)O` [60% propan-2-ol, propan-2-ol], the Postvalues in test [2] (per subject and hand (L/R), after 2 x 3 mL) is 625 and 5 (3×) and 0 (2×) and 235 (2×) and 455 and 52 and 127 and 240 and 1415 and 2050 and 5950 and 4 and 165 and 125 and 690 and 250 and 210 and 21 and 61 and 30 and 74 and 7 and 22 and 1530. In test [2] (setting [4]), the “Number of cfu per plate, Postvalues, dilution 10^-0” value is “TNTC/TNTC (14×) and 42/41 and 0/0 (3×) and 5/4 and 58/46 and 134/120 and 4/3 and 5/5 and 246/275 and 232/182 and 19/22 and 54/69 and 86/62 and 3/10 and 21/22”; the “Number of cfu per plate, Postvalues, dilution 10^-1” value was 108/94 and 9/3 and 177/129 and 62/63 and 1/0 and 5/3 and 0/0 (6×) and 20/27 and 50/41 and 2/0 and 26/22 and 141/142 and TNTC/TNTC (2×) and 0/5 and 18/15 and 9/16 and 17/30 and 62/76 and 26/24 and 19/23 and 8/8 and 1/5 and 1/11 and 1/2; the “Number of cfu per plate, Postvalues, dilution 10^-2” value is 5/16 and 0/3 and 11/19 and 2/4 and 0/0 (12×) and 0/1 (2×) and 2/1 and 3/9 and 7/3 and 11 cfu and 16/ cfu and 56/ cfu and 0/2 and 1/0 and 10/9 and 17 cfu and 1/2 and 3/5. The “Log Y, average of subjects” value in test [3] turned out to be 1.97.
